In US11707537B2, “Conformational restriction of cyanine fluorophores in far-red and near-IR range” (The United States of America, as represented by the …, priority 2017, dated 2023):
Marks after values point to notes of the source that are not given here. Each block holds one compound with its values, some of them ahead of it.

Key:
Format in all cases: physicochemical
[1] = Temperature dependence of fluorescence emission; details: in ethanol
Description: FIG. 7 is a graph showing the temperature dependence of fluorescence emission from compounds 4 (squares) and 10 (circles) in ethanol.
This is also due to photoisomerization in compound 10, which becomes more efficient at higher temperatures. The substantially longer lifetimes of compounds 4 and 7 relative to the unrestrained cyanine 10 point to significant potential for fluorescence lifetime imaging microscopy (FLIM).

[2] = Absorbance and molar absorption coefficient (Beer's law); details: for shift in λmax: relative to unrestricted compound 10
Description: (§1) All commercially obtained reagents were used as received. 2,3,3-trimethyl indoline (S1), malonaldehyde bis(phenylimine) monohydrochloride, Grubb's 2nd generation and Hoyveda-Grubbs 2nd generation catalysts were purchased from Sigma-Aldrich (St. Louis, Mo.). Acrolein dimethyl acetal (2) was purchased from TCI America (Portland, Oreg.). 4-hydrazinylbenzoic acid (S5) was ordered from Oakwood Chemical (Estill, S.C.). 2-(2-bromoethyl)-1,3-dioxolane was purchased from Acros Organics (Geel, Belgium). NH2-PEG8-COOH was purchased from Thermo Scientific (Waltham, Mass.). Aminophalloidin tosylate was purchased from Enzo, Inc. (Farmingdale, N.Y.). Compounds S2, S4, and S8 were synthesized according to known procedures (Hanessian et al., J. Am. Chem. Soc. 2004, 126 (19), 6064-71; Hall et al., Nucleic Acids Res. 2012, 40 (14), e108; Park et al., Bioconjugate Chem. 2012, 23 (3), 350-362). Normal phase (60 Å, 20-40 m, RediSep® Rf Gold® silica or 60 Å, 35-70 m, RediSep® Rf silica) and reversed phase (100 Å, 20-40 micron particle size, RediSep® Rf Gold® Reversed-phase C18 or C18Aq) flash column chromatography was performed on a CombiFlash© Rf 200i (Teledyne Isco, Inc., Lincoln, Nebr.). Reversed-phase preparative HPLC was performed using an Agilent 1260 Infinity II LC system utilizing a SunFire Prep C18 column (100 Å, 5 m, 10×150 mm) obtained from Waters, Co (Milford, Mass.). High-resolution LC/MS analyses were conducted on a Thermo-Fisher LTQ-Orbitrap-XL hybrid mass spectrometer system with an Ion MAX API electrospray ion source in negative ion mode. Analytical LC/MS was performed using a Shimadzu LCMS-2020 Single Quadrupole utilizing a Kinetex C18 column (100 Å, 2.6 m, 2.1×50 mm) obtained from Phenomenex, Inc (Torrance, Calif.). Runs employed a gradient of 0-90% MeCN/0.1% aqueous formic acid over 4.5 min at a flow rate of 0.2 mL/min. ^1H NMR and ^13C NMR spectra were recorded on Bruker spectrometers (at 400 or 500 MHz or at 100 or 125 MHz) and are reported relative to deuterated solvent signals. Data for ^1H NMR spectra are reported as follows: chemical shift (6 ppm), multiplicity, coupling constant (Hz), and integration. Data for ^13C NMR spectra are reported in terms of chemical shift. Absorbance curves were obtained on a Shimadzu UV-2550 spectrophotometer operated by UVProbe 2.32 software. Molar absorption coefficients (F) were determined in PBS (50 mM, pH 7.4) or methanol (MeOH) using Beer's law, from plots of absorbance vs. concentration. Measurements were performed in 10 mm path length quartz cuvettes (Hellma 111-QS) that were maintained at room temperature, and reported values are averages (n≥3). Fluorescence traces were recorded on a PTI QuantaMaster steady-state spectrofluorimeter operated by FelixGX 4.2.2 software, with 4 nm excitation and emission slit widths, and a 0.1 s integration rate. A Quantaurus-QY spectrometer (Hamamatsu, model C11374) was used to determine absolute fluorescence quantum yields (ΦF) (Suzuki et al., Phys. Chem. Chem. Phys. 112009, 9850-9860). This instrument uses an integrating sphere to measure photons absorbed and emitted by a sample. Measurements were carried out at a concentration of 250 nM in either MeOH or PBS (50 mM, pH 7.4) and self-absorption corrections were performed using the instrument software. Reported values are averages (n≥5). Data analysis and curve fitting were performed using MS Excel 2011 and GraphPad Prism 7. Light intensity measurements were performed with a Thorlabs PM200 optical power and energy meter fitted with an S120VC standard Si photodiode power sensor (200-1100 nm, 50 nW-50 mW). See JOC Standard Abbreviations and Acronyms for abbreviations (http://pubs.acs.org/paragonplus/submission/joceah/-joceah_abbreviations.pdf).

Fluorescence lifetime = details: for solvent viscosity sensitivity of fluorescence lifetime and quantum yield: solvents of Table 2
[3] = Fluorescence emission and fluorescence quantum yield
Description: as §1, with “A Quantaurus-QY spectrometer (Hamamatsu, model C11374) was used to determine absolute fluorescence quantum yields (ΦF) (Suzuki et al., Phys.” left out, “Measurements were carried out at a concentration of 250 nM in either MeOH or PBS (50 mM, pH 7.4) and self-absorption corrections were performed using the instrument software.” left out

[4] = TCEP addition, formation of phosphine-polyene adducts; details: 10 μM, TCEP in Tris (0.20 M, pH 9.0), absorbance at λmax
Protocol: FIG. 9 is a graph showing the effect of TCEP addition on absorbance of compound 7 and AF647 (10 μM each). Absorbance at λmax (compound 7 at 670 nm and AF647 at 650 nm) as a function of TCEP concentration in Tris (0.20 M, pH 9.0).
The formation of phosphine and thiol adducts in chemical and single molecule imaging contexts was also evaluated. TCEP (tris(2-carboxyethyl)phosphine) was add to compound 7 and AF647 (Alexa Fluor 647, available through ThermoFisher Scientific) (10 μM each) (Vaughan et al., JACS 2013, 135(4):1197-1200). Absorbance at λmax (compound 7 at 670 nm and AF647 at 650 nm) as a function of TCEP concentration in Tris (0.20 M, pH 9.0). Compound 7 (circles) appeared resistant to the formation of polyene-heteroatom adducts (FIG. 9).

SMILES: CC1(C)C2=C3C=C4C=C5C6=[N+](CC[C@H]5O[C@H]4C[C@H]3CCN2c2ccccc21)c1ccccc1C6(C)C [Compound 4]
temperature sensitivity of fluorescence emission [1]: insensitive to temperature
ε ([2]; in methanol): 206,000 M^−1cm^−1
λmax ([2]; in methanol): 662 nm
shift in λmax [2]: approximately 25 nm
τ (Fluorescence lifetime; Acetone): 2.9 ns
τ (Fluorescence lifetime; EtOH): 2.5 ns
τ (Fluorescence lifetime; Glycerol): 2.3 ns
τ (Fluorescence lifetime; MeCN): 2.8 ns
τ (Fluorescence lifetime; in methanol (MeOH)): 2.5 ns
solvent viscosity sensitivity of fluorescence lifetime and quantum yield (Fluorescence lifetime): largely solvent viscosity insensitive
ΦF ([3]; Acetone, calculated by relative method): 0.90
ΦF ([3]; EtOH, calculated by relative method): 0.68
ΦF ([3]; Glycerol, calculated by relative method): 0.66
ΦF ([3]; MeCN, calculated by relative method): 0.92
λem ([3]; in methanol): 677 nm
ΦF ([3]; in methanol (MeOH), integrating sphere): 0.69

λmax ([2]; in pH 7.4 PBS): 670^b nm
ε ([2]; no solvent footnote on this cell (PBS or methanol)): 190,000 M^−1cm^−1
shift in λmax [2]: approximately 25 nm
τ (Fluorescence lifetime; in H2O): 1.7^c ns
solvent viscosity sensitivity of fluorescence lifetime and quantum yield (Fluorescence lifetime): largely solvent viscosity insensitive
λem ([3]; in pH 7.4 PBS): 683^b nm
formation of polyene-heteroatom adducts [4]: resistant
SMILES: CC1(C)C2=C3C=C4C=C5C6=[N+](CC[C@H]5O[C@H]4C[C@H]3CCN2c2ccc(S(=O)(=O)[O-])cc21)c1ccc(C(=O)O)cc1C6(C)C [Compound 7]
